Data reported in PubChem BioAssay (NCI).
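In this assay, cells in 96-well plates receive the compound at five concentrations for 48 hours. Endpoints are linearly interpolated between the surrounding concentrations. TGI marks complete inhibition of growth.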

Columns and labels:
Experiment in all cases: NCI anticancer screen, dose series, 48 h
SN12C renal = system: SN12C renal
SF-539 CNS = system: SF-539 CNS
SNB-19 CNS = system: SNB-19 CNS
HS 578T breast = system: HS 578T breast
EKVX NSCLC = system: EKVX NSCLC
CCRF-CEM leukemia = system: CCRF-CEM leukemia
SNB-75 CNS = system: SNB-75 CNS
HT29 colon = system: HT29 colon
M14 melanoma = system: M14 melanoma
SK-MEL-5 melanoma = system: SK-MEL-5 melanoma
SF-295 CNS = system: SF-295 CNS
OVCAR-4 ovarian = system: OVCAR-4 ovarian
KM12 colon = system: KM12 colon
HL-60(TB) leukemia = system: HL-60(TB) leukemia
NCI-H522 lung = system: NCI-H522 lung
PC-3 prostate = system: PC-3 prostate
SW-620 colon = system: SW-620 colon
A498 renal = system: A498 renal
U251 CNS = system: U251 CNS

Compound | TGI (SN12C renal) | TGI (SF-539 CNS) | TGI (SNB-19 CNS) | TGI (HS 578T breast) | TGI (EKVX NSCLC) | TGI (CCRF-CEM leukemia) | TGI (SNB-75 CNS) | TGI (HT29 colon) | TGI (M14 melanoma) | TGI (SK-MEL-5 melanoma) | TGI (SF-295 CNS) | TGI (OVCAR-4 ovarian) | TGI (KM12 colon) | TGI (HL-60(TB) leukemia) | TGI (NCI-H522 lung) | TGI (PC-3 prostate) | TGI (SW-620 colon) | TGI (A498 renal) | TGI (U251 CNS)
O=c1c(-c2c(-c3ccccc3)oc3ccc(Cl)cc3c2=O)c(-c2ccccc2)oc2ccc(Cl)cc12 | > 100 µM | > 100 µM | > 100 µM | > 100 µM | > 100 µM | > 100 µM | > 62.2 µM | > 100 µM | > 100 µM | > 100 µM | > 79.4 µM | > 100 µM | > 100 µM | 0.606 µM | > 100 µM | > 100 µM | > 100 µM | > 100 µM | > 100 µM
Cc1ccc(-c2cc(-c3ccc(Cl)cc3)nc(/N=C3\C(=O)N(CN4CCOCC4)c4ccccc43)n2)cc1 | > 100 µM | 36.5 µM | 42.2 µM | 51.5 µM | > 100 µM | 88.2 µM | 70.2 µM | 65.1 µM | 87.4 µM | 36.1 µM | > 100 µM | > 100 µM | 58.5 µM | 26.3 µM | 30.1 µM | > 100 µM | 62.8 µM | 38.9 µM | 77 µM
COC(=O)C(Cc1ccccc1)NC(=O)C(CCC(=O)OCc1ccccc1)NC(=O)OC(C)(C)C (stereo not given) | > 100 µM | > 100 µM | > 100 µM | > 100 µM | > 100 µM | > 100 µM | > 100 µM | > 100 µM | > 100 µM | > 100 µM | > 100 µM | > 100 µM | > 100 µM | > 100 µM | > 100 µM | > 100 µM | > 100 µM | > 100 µM | > 100 µM
CC(=O)OCC1OC(n2c(C#N)cc(=O)[nH]c2=O)CC1OC(C)=O (stereo not given) | > 100 µM | > 100 µM | > 100 µM | > 100 µM | > 100 µM | > 100 µM | > 100 µM | > 100 µM | > 100 µM | > 100 µM | > 100 µM | > 100 µM | > 100 µM | > 100 µM | > 100 µM | > 100 µM | > 100 µM | > 100 µM | > 100 µM
CCC(=O)C1(N2CCOCC2)CCN(CCCC(=O)c2ccc(F)cc2)CC1 | > 100 µM | > 100 µM | > 100 µM | > 100 µM | > 100 µM | > 100 µM | > 100 µM | > 100 µM | > 100 µM | > 100 µM | > 100 µM | > 100 µM | > 100 µM | > 100 µM | > 100 µM | > 100 µM | > 100 µM | > 100 µM | > 100 µM
NC(=O)NC(=O)CCC(NS(=O)(=O)c1ccccc1)C(=O)NC(N)=O (stereo not given) | > 100 µM | > 100 µM | > 100 µM | > 100 µM | > 100 µM | > 100 µM | > 100 µM | > 100 µM | > 100 µM | > 100 µM | > 100 µM | > 100 µM | > 100 µM | > 100 µM | > 100 µM | > 100 µM | > 100 µM | > 100 µM | > 100 µM
O=C(Nc1cccc(NC(=O)C(=O)C2CCC3=C(Sc4ccccc4N3)C2=O)n1)C(=O)C1CCC2=C(Sc3ccccc3N2)C1=O (stereo not given) | > 100 µM | 55.1 µM | > 100 µM | > 100 µM | > 100 µM | > 100 µM | 70.2 µM | > 100 µM | > 100 µM | > 100 µM | > 100 µM | 71.7 µM | > 100 µM | > 100 µM | > 100 µM | > 100 µM | > 100 µM | > 100 µM | > 100 µM
CC1=C(C)CC(C#N)(C#N)C(C#N)(C#N)C1 | > 10 µM | > 10 µM | > 10 µM | > 10 µM | > 10 µM | > 10 µM | > 10 µM | > 10 µM | > 10 µM | > 10 µM | > 10 µM | > 10 µM | > 10 µM | > 5 µM | > 2.72 µM | > 10 µM | > 5.42 µM | > 10 µM | > 10 µM
Cc1cc(N)ccc1N=Nc1ccc(S(=O)(=O)CCOS(=O)(=O)O)cc1 | 11.1 µM | 6.9 µM | 19.3 µM | 35.5 µM | > 53 µM | > 100 µM | 19.8 µM | 6.53 µM | 18.4 µM | 2.23 µM | 9.21 µM | 29 µM | 13.2 µM | > 38.1 µM | 0.773 µM | 12.7 µM | 16.1 µM | 31.1 µM | 13.1 µM
Nc1ccc(Oc2ccc(C3(c4ccc(Oc5ccc(N)cc5)cc4)C4CC5C6CC7CC5C3C(C7)C6C4)cc2)cc1 | 98.5 µM | > 100 µM | > 100 µM | > 100 µM | > 100 µM | > 100 µM | > 100 µM | > 100 µM | > 100 µM | > 100 µM | > 100 µM | > 100 µM | > 87.8 µM | > 100 µM | > 100 µM | > 100 µM | > 100 µM | 18.9 µM | > 70 µM
CCCc1cc(=O)oc2c(C=O)c(O)cc(O)c12 | 78.9 µM | 57 µM | 87.1 µM | 61.2 µM | 56.3 µM | 51.4 µM | 47.4 µM | 64.5 µM | 52.7 µM | 37.8 µM | 85 µM | 73.5 µM | 61.2 µM | 42.7 µM | 41.9 µM | 59.3 µM | 56.4 µM | 40.6 µM | 55.7 µM
O=C(NO)c1ccc(OCc2cccc(Cl)c2)cc1 | 55.9 µM | > 41.8 µM | > 100 µM | > 96 µM | 30.2 µM | > 100 µM | > 70.2 µM | 25.6 µM | > 45.8 µM | > 100 µM | 35.2 µM | > 58 µM | 29.9 µM | 20.8 µM | 19.2 µM | > 44.1 µM | > 100 µM | 20 µM | > 60.5 µM
CN(C)CC1CCCC(CN2CCCCC2)C1=O (stereo not given) | 16.8 µM | 33.6 µM | > 100 µM | 59 µM | 28.7 µM | 5.48 µM | 43.2 µM | 25.1 µM | 18.7 µM | 33.5 µM | > 100 µM | 7.75 µM | 44.9 µM | 11.8 µM | 0.204 µM | 29 µM | 3.74 µM | > 71.3 µM | > 66.9 µM
CCCCCN1CCN(c2ncccn2)CC1 | > 100 µM | > 100 µM | > 100 µM | > 100 µM | > 100 µM | > 100 µM | > 100 µM | > 100 µM | > 100 µM | > 100 µM | > 100 µM | > 100 µM | > 100 µM | > 100 µM | > 100 µM | > 100 µM | > 100 µM | > 100 µM | > 100 µM
O=C1C=CC(=O)c2c1cc([N+](=O)[O-])c1ccoc21 | 38.1 µM | 69.9 µM | 39.6 µM | > 60.1 µM | 41.1 µM | > 19.7 µM | > 59.5 µM | 76.7 µM | 11.3 µM | 31.3 µM | 35.8 µM | 38.6 µM | 31.9 µM | 8.72 µM | 4.4 µM | 30.7 µM | > 100 µM | 30 µM | 37.2 µM
